Where two headings read alike, the source gives them in different places.
Key:
AP activity = test: Wieslab assay (AP activity in vitro); assay type: biochemical
[1] = Ocular tissue and plasma pharmacokinetics, 15 mg/kg oral, New Zealand White rabbits (Example 3/5); assay type: in vivo
[2] = Choroid-RPE, NZW rabbit, 15 mg/kg single dose, Day 1
[3] = NZW rabbit, 15 mg/kg single oral dose, Day 1, 0 h, 15 mg/kg
[4] = NZW rabbit, 15 mg/kg single oral dose, Day 1, 6 h, 15 mg/kg
[5] = NZW rabbit, 15 mg/kg single oral dose, Day 1, 24 h
[6] = NZW rabbit, 15 mg/kg single oral dose, Day 1, 24 h, 15 mg/kg
[7] = NZW rabbit, 15 mg/kg single oral dose, Day 1, 96 h
[8] = NZW rabbit, 15 mg/kg single oral dose, Day 1, 96 h, 15 mg/kg
[9] = NZW rabbit, 15 mg/kg single oral dose, Day 1, 168 h
[10] = NZW rabbit, 15 mg/kg single oral dose, Day 1, 168 h, 15 mg/kg
[11] = NZW rabbit, 15 mg/kg single oral dose, Day 1, 240 h, 15 mg/kg
[12] = NZW rabbits, Day 1, 15 mg/kg single dose, 0 hr
[13] = NZW rabbits, Day 1, 15 mg/kg single dose, 168 hr
[14] = NZW rabbits, Day 1, 15 mg/kg single dose, 240 hr
[15] = New Zealand White, po, Iris-Ciliary Body, NZW rabbit, 15 mg/kg single dose, Day 1
[16] = New Zealand White, po, Vitreous Humor, NZW rabbit, 15 mg/kg single dose, Day 1
[17] = plasma, NZW rabbit, 15 mg/kg single dose, Day 1
[18] = retina, NZW rabbit, 15 mg/kg single dose, Day 1

**Q.** With CC(=O)c1nn(CC(=O)N2C[C@H](F)C[C@H]2C(=O)Nc2cccc(Br)n2)c2ccc(-c3cnc(C)nc3)cc12 [Compound 1, (2S,4R)-1-(2-(3-Acetyl-5-(2-methylpyrimidin-5-yl)-1H-indazol-1-yl)acetyl)-N-(6-bromopyridin-2-yl)-4-fluoropyrrolidine-2-carboxamide] as the compound, how does the IC50 (AP activity) read?
**A.** The IC50 was 26 nM.

**Q.** What about the MRTlast [1, 2] of the same compound?
**A.** Its MRTlast is 5.87 h.

**Q.** What about the Tlast [1, 2] of the same compound?
**A.** The Tlast was 24 h.

**Q.** And the Tlast ([1]; Iris-Ciliary Body, NZW rabbit, 15 mg/kg single dose, Day 1)?
**A.** The Tlast was 1 h.

**Q.** And the “Mean Vitreous Humor concentration” value ([1]; NZW rabbit, 15 mg/kg single oral dose, Day 1, 0 h)?
**A.** Its value is “BLQ^a”.

**Q.** And the “Mean Choroid-RPE concentration” value [1, 3]?
**A.** Its value is “BLQ^a and BLQ”.

**Q.** And the “Mean Iris-Ciliary Body concentration” value [1, 3]?
**A.** The value was “BLQ^a and BLQ”.

**Q.** And the Mean plasma concentration [1, 3]?
**A.** The Mean plasma concentration was “BLQ^a and BLQ”.

**Q.** And the Mean retina concentration [1, 3]?
**A.** Its Mean retina concentration is “BLQ^a and BLQ”.

**Q.** What about the “Mean Aqueous Humor concentration” value ([1]; NZW rabbit, 15 mg/kg single oral dose, Day 1, 6 h) of the same compound?
**A.** Its value is “BLQ^a”.

**Q.** What about the “Mean Iris-Ciliary Body concentration” value [1, 4] of the same compound?
**A.** Its value is “BLQ^a and BLQ”.

**Q.** What about the Mean retina concentration [1, 4] of the same compound?
**A.** Its Mean retina concentration is 26 ng/g.

**Q.** And the “Mean Aqueous Humor concentration” value [1, 5]?
**A.** Its value is “BLQ^a”.

**Q.** What about the “Mean Vitreous Humor concentration” value [1, 5] of the same compound?
**A.** The value was “BLQ^a”.

**Q.** What about the “Mean Iris-Ciliary Body concentration” value [1, 6] of the same compound?
**A.** The value was “BLQ^a and BLQ”.

**Q.** What about the Mean retina concentration [1, 6] of the same compound?
**A.** Its Mean retina concentration is “BLQ^a and BLQ”.

**Q.** And the “Mean Aqueous Humor concentration” value [1, 7]?
**A.** Its value is “BLQ^a”.

**Q.** What about the “Mean Vitreous Humor concentration” value [1, 7] of the same compound?
**A.** Its value is “BLQ^a”.

**Q.** And the “Mean Choroid-RPE concentration” value [1, 8]?
**A.** The value was “BLQ^a and BLQ”.

**Q.** And the “Mean Iris-Ciliary Body concentration” value [1, 8]?
**A.** The value was “BLQ^a and BLQ”.

**Q.** And the Mean plasma concentration [1, 8]?
**A.** Its Mean plasma concentration is “BLQ^a and BLQ”.

**Q.** What about the Mean retina concentration [1, 8] of the same compound?
**A.** The Mean retina concentration was “BLQ^a and BLQ”.

**Q.** What about the “Mean Aqueous Humor concentration” value [1, 9] of the same compound?
**A.** Its value is “BLQ^a”.

**Q.** What about the “Mean Vitreous Humor concentration” value [1, 9] of the same compound?
**A.** The value was “BLQ^a”.

**Q.** And the “Mean Choroid-RPE concentration” value [1, 10]?
**A.** Its value is “BLQ^a and BLQ”.

**Q.** What about the “Mean Iris-Ciliary Body concentration” value [1, 10] of the same compound?
**A.** The value was “BLQ^a and BLQ”.

**Q.** And the Mean retina concentration [1, 10]?
**A.** The Mean retina concentration was “BLQ^a and BLQ”.

**Q.** What about the “Mean Aqueous Humor concentration” value ([1]; NZW rabbit, 15 mg/kg single oral dose, Day 1, 240 h) of the same compound?
**A.** Its value is “BLQ^a”.

**Q.** And the “Mean Choroid-RPE concentration” value [1, 11]?
**A.** Its value is “BLQ^a and BLQ”.

**Q.** What about the “Mean Iris-Ciliary Body concentration” value [1, 11] of the same compound?
**A.** The value was “BLQ^a and BLQ”.

**Q.** What about the Mean plasma concentration [1, 11] of the same compound?
**A.** Its Mean plasma concentration is “BLQ^a and BLQ”.

**Q.** And the Mean retina concentration [1, 11]?
**A.** Its Mean retina concentration is “BLQ^a and BLQ”.

**Q.** And the “Mean Choroid-RPE concentration” value [1, 12]?
**A.** The value was “BLQ”.

**Q.** What about the “Mean retina concentration” value [1, 12] of the same compound?
**A.** The value was “BLQ”.

**Q.** What about the “Mean retina concentration” value ([1]; NZW rabbits, Day 1, 15 mg/kg single dose, 24 hr) of the same compound?
**A.** The value was “BLQ”.

**Q.** And the “Mean Choroid-RPE concentration” value ([1]; NZW rabbits, Day 1, 15 mg/kg single dose, 96 hr)?
**A.** The value was “BLQ”.

**Q.** And the “Mean Choroid-RPE concentration” value [1, 13]?
**A.** The value was “BLQ”.

**Q.** And the “Mean retina concentration” value [1, 13]?
**A.** Its value is “BLQ”.

**Q.** What about the “Mean Choroid-RPE concentration” value [1, 14] of the same compound?
**A.** The value was “BLQ”.

**Q.** What about the “Mean retina concentration” value [1, 14] of the same compound?
**A.** Its value is “BLQ”.

**Q.** And the concentration at 1 h ([1]; New Zealand White, aqueous humor, NZW rabbit, 15 mg/kg single oral dose, Day 1, 1 h, read-out: Mean Aqueous Humor concentration)?
**A.** The concentration at 1 h was 4 ng/mL.

**Q.** What about the concentration at 1 h ([1]; New Zealand White, choroid-RPE, NZW rabbit, 15 mg/kg single oral dose, Day 1, 1 h, read-out: Mean Choroid-RPE concentration) of the same compound?
**A.** The concentration at 1 h was 172 ng/g.

**Q.** And the concentration at 6 h ([1]; New Zealand White, choroid-RPE, NZW rabbit, 15 mg/kg single oral dose, Day 1, 6 h, read-out: Mean Choroid-RPE concentration)?
**A.** Its concentration at 6 h is 31.5 ng/g.

**Q.** What about the concentration at 24 h ([1]; New Zealand White, choroid-RPE, NZW rabbit, 15 mg/kg single oral dose, Day 1, 24 h, read-out: Mean Choroid-RPE concentration) of the same compound?
**A.** The concentration at 24 h was 15.1 ng/g.

**Q.** What about the concentration at 1 h ([1]; New Zealand White, plasma, NZW rabbit, 15 mg/kg single oral dose, Day 1, 1 h, read-out: Mean plasma concentration) of the same compound?
**A.** The concentration at 1 h was 310 ng/mL.

**Q.** And the concentration at 6 h ([1]; New Zealand White, plasma, NZW rabbit, 15 mg/kg single oral dose, Day 1, 6 h, read-out: Mean plasma concentration)?
**A.** Its concentration at 6 h is 35.1 ng/mL.

**Q.** What about the concentration at 24 h ([1]; New Zealand White, plasma, NZW rabbit, 15 mg/kg single oral dose, Day 1, 24 h, read-out: Mean plasma concentration) of the same compound?
**A.** Its concentration at 24 h is 11.1 ng/mL.

**Q.** And the Cmax [1, 15]?
**A.** Its Cmax is 117 ng/g.

**Q.** And the MRT last [1, 15]?
**A.** The MRT last was 1 h.

**Q.** What about the AUC(0-t) [1, 16] of the same compound?
**A.** Its AUC(0-t) is 30.3 ng·h/mL.

**Q.** And the Cmax [1, 16]?
**A.** Its Cmax is 7.61 ng/mL.

**Q.** And the Cmax ([1]; New Zealand White, po, plasma, NZW rabbit, 15 mg/kg single dose, Day 1)?
**A.** Its Cmax is 310 ng/mL.

**Q.** And the concentration at 1 h ([1]; New Zealand White, rabbit, choroid-RPE, oral, NZW rabbits, Day 1, 15 mg/kg single dose, 1 hr, read-out: Mean Choroid-RPE Concentration)?
**A.** The concentration at 1 h was 172 ng/g.

**Q.** And the concentration at 6 h ([1]; New Zealand White, rabbit, choroid-RPE, oral, NZW rabbits, Day 1, 15 mg/kg single dose, 6 hr, read-out: Mean Choroid-RPE Concentration)?
**A.** Its concentration at 6 h is 31.5 ng/g.

**Q.** And the concentration at 24 h ([1]; New Zealand White, rabbit, choroid-RPE, oral, NZW rabbits, Day 1, 15 mg/kg single dose, 24 hr, read-out: Mean Choroid-RPE Concentration)?
**A.** The concentration at 24 h was 15.1 ng/g.

**Q.** And the concentration at 1 h ([1]; New Zealand White, rabbit, retina, oral, NZW rabbits, Day 1, 15 mg/kg single dose, 1 hr, read-out: Mean Retina Concentration)?
**A.** Its concentration at 1 h is 200 ng/g.

**Q.** And the concentration at 6 h ([1]; New Zealand White, rabbit, retina, oral, NZW rabbits, Day 1, 15 mg/kg single dose, 6 hr, read-out: Mean Retina Concentration)?
**A.** Its concentration at 6 h is 26 ng/g.

**Q.** And the concentration at 1 h ([1]; New Zealand White, retina, NZW rabbit, 15 mg/kg single oral dose, Day 1, 1 h, read-out: Mean retina concentration)?
**A.** Its concentration at 1 h is 200 ng/g.

**Q.** What about the concentration at 6 h ([1]; New Zealand White, retina, NZW rabbit, 15 mg/kg single oral dose, Day 1, 6 h, read-out: Mean retina concentration) of the same compound?
**A.** The concentration at 6 h was 26 ng/g.

**Q.** And the concentration at 1 h ([1]; New Zealand White, vitreous humor, NZW rabbit, 15 mg/kg single oral dose, Day 1, 1 h, read-out: Mean Vitreous Humor concentration)?
**A.** Its concentration at 1 h is 7.61 ng/mL.

**Q.** What about the concentration at 6 h ([1]; New Zealand White, vitreous humor, NZW rabbit, 15 mg/kg single oral dose, Day 1, 6 h, read-out: Mean Vitreous Humor concentration) of the same compound?
**A.** Its concentration at 6 h is 3 ng/mL.

**Q.** What about the MRTlast [1, 17] of the same compound?
**A.** The MRTlast was 4.01 h.

**Q.** And the Tlast [1, 17]?
**A.** Its Tlast is 24 h.

**Q.** What about the MRTlast [1, 18] of the same compound?
**A.** The MRTlast was 1.49 h.

**Q.** And the Tlast [1, 18]?
**A.** The Tlast was 6 h.

From US20230126447A1, “OCULAR DRUG DEPOT FOR COMPLEMENT-MEDIATED DISORDERS” (priority 2020, published 2023)
